In brackets after ≈: the same amount, converted by molar mass. Activity calls are given as the source filed them. No cut-off for these calls is given here.
Legend:
Type in all cases: functional
[1] = tested on: Staphylococcus aureus; assay: Antimicrobial activity against linezolid-susceptible Staphylococcus aureus by CLSI method
[2] = tested on: Staphylococcus aureus; assay: Antimicrobial activity against linezolid-susceptible Staphylococcus aureus assessed as percent susceptible strain by CLSI method
[3] = tested on: Staphylococcus aureus; assay: Antimicrobial activity against oxacillin-susceptible Staphylococcus aureus by CLSI method
[4] = tested on: Staphylococcus aureus; assay: Antimicrobial activity against oxacillin-susceptible Staphylococcus aureus assessed as percent susceptible strain by CLSI method
[5] = tested on: Staphylococcus aureus; assay: Antimicrobial activity against oxacillin-resistant Staphylococcus aureus by CLSI method
[6] = tested on: Staphylococcus aureus; assay: Antimicrobial activity against linezolid-resistant Staphylococcus aureus by CLSI method
[7] = tested on: Staphylococcus; assay: Antimicrobial activity against linezolid-susceptible coagulase-negative Staphylococcus by CLSI method
[8] = tested on: Staphylococcus; assay: Antimicrobial activity against linezolid-susceptible coagulase-negative Staphylococcus assessed as percent susceptible strain by CLSI method
[9] = tested on: Staphylococcus; assay: Antimicrobial activity against oxacillin-susceptible coagulase-negative Staphylococcus aureus by CLSI method
[10] = Antimicrobial activity against oxacillin-susceptible coagulase-negative Staphylococcus aureus assessed as percent susceptible strain by CLSI method
[11] = tested on: Staphylococcus; assay: Antimicrobial activity against oxacillin-resistant coagulase-negative Staphylococcus aureus by CLSI method
[12] = tested on: Staphylococcus; assay: Antimicrobial activity against linezolid-resistant coagulase-negative Staphylococcus by CLSI method
[13] = tested on: Staphylococcus; assay: Antimicrobial activity against linezolid-resistant coagulase-negative Staphylococcus assessed as percent susceptible strain by CLSI method
[14] = tested on: Staphylococcus aureus; assay: Antimicrobial activity against methicillin-resistant Staphylococcus aureus by CLSI method
[15] = tested on: Staphylococcus; assay: Antimicrobial activity against Linezolid and methicillin-resistant coagulase-negative Staphylococcus by CLSI method

SMILES	MIC90 [1]	Activity [2]	MIC50 [3]	MIC90 [3]	Activity [4]	MIC90 [5]	MIC50 [6]	MIC50 [7]	MIC90 [7]	Activity [8]	MIC50 [9]	MIC90 [9]	Activity [10]	MIC50 [11]	MIC90 [11]	MIC50 [12]	Activity [14]	further results
CC(=O)N[C@@H]1[C@H](Oc2c3cc4cc2Oc2ccc(cc2Cl)[C@@H](O[C@@H]2O[C@@H](CO)[C@@H](O)[C@H](O)[C@@H]2NC(C)=O)[C@@H]2NC(=O)[C@H](NC(=O)[C@@H]4NC(=O)[C@H]4NC(=O)[C@@H](Cc5ccc(c(Cl)c5)O3)NC(=O)[C@H](N)c3ccc(O)c(c3)Oc3cc(O)cc4c3)c3ccc(O)c(c3)-c3c(O[C@H]4O[C@H](CO)[C@@H](O)[C@@H](O)[C@@H]4O)cc(O)cc3[C@@H](C(=O)O)NC2=O)O[C@@H](CO)[C@@H](O)[C@@H]1O	1 µg/mL (≈ 0.566 µM)	100%	≤ 0.5 µg/mL	1 µg/mL (≈ 0.566 µM)	100%	1 µg/mL (≈ 0.566 µM)	1 µg/mL (≈ 0.566 µM)	2 µg/mL (≈ 1.13 µM)	8 µg/mL (≈ 4.53 µM)	94.5%	2 µg/mL (≈ 1.13 µM)	4 µg/mL (≈ 2.26 µM)	100%	2 µg/mL (≈ 1.13 µM)	8 µg/mL (≈ 4.53 µM)	4 µg/mL (≈ 2.26 µM)	Active	Activity [13]: 80%
CCCCCCCCCC(=O)N[C@@H](Cc1c[nH]c2ccccc12)C(=O)N[C@H](CC(N)=O)C(=O)N[C@@H](CC(=O)O)C(=O)N[C@@H]1C(=O)NCC(=O)N[C@@H](CCCN)C(=O)N[C@@H](CC(=O)O)C(=O)N[C@H](C)C(=O)N[C@@H](CC(=O)O)C(=O)NCC(=O)N[C@H](CO)C(=O)N[C@@H]([C@H](C)CC(=O)O)C(=O)N[C@@H](CC(=O)c2ccccc2N)C(=O)O[C@@H]1C	0.5 µg/mL (≈ 0.309 µM)	100%	0.25 µg/mL (≈ 0.154 µM)	0.5 µg/mL (≈ 0.309 µM)	100%	0.5 µg/mL (≈ 0.309 µM)	0.5 µg/mL (≈ 0.309 µM)	0.25 µg/mL (≈ 0.154 µM)	0.5 µg/mL (≈ 0.309 µM)	100%	0.25 µg/mL (≈ 0.154 µM)	0.5 µg/mL (≈ 0.309 µM)	100%	0.25 µg/mL (≈ 0.154 µM)	0.5 µg/mL (≈ 0.309 µM)	0.5 µg/mL (≈ 0.309 µM)	Active	MIC50 [1]: 0.25 µg/mL (≈ 0.154 µM); MIC50 [5]: 0.5 µg/mL (≈ 0.309 µM); MIC [15]: 0.5 µg/mL (≈ 0.309 µM)
